Experimental data as given in patent US10786583B2, “Pre-saturation of the liver and subsequent administration of the contrast agent” (B. Braun Melsungen AG, priority 2013, dated 2020).
Each block holds one molecule with its values, some of them ahead of it.

Legend:
[1] = Density measurement of mixtures of MCT and F6H8; format: physicochemical; conditions: mixture with about 61.5 wt.-% MCT, based on total weight of the oil phase
From the text: By adapting the density of the oil phase to the density of the aqueous phase coalescence phenomena of the droplets as well as sedimentation phenomena, which destabilize the emulsion, can be decreased.

[2] = Solubility of perfluorocarbon contrast agents in oil phase; format: physicochemical
From the text: Perfluoroctylbromide (PFOB) is a known contrast agent for the magnetic resonance spectroscopy.

Content of F6H8 in oil phase at which density of the oil mixture corresponds to the density of the aqueous phase [1]: about 38.5 wt.-%
SMILES: CCCCCCCCC(F)(F)C(F)(F)C(F)(F)C(F)(F)C(F)(F)C(F)(F)F [Example F6H8, perfluorohexyloctane]

Solubility in PFOB [2]: can be dissolved in PFOB
SMILES: FC(F)(F)C(F)(F)C(F)(F)C(F)(F)C(F)(F)C(F)(F)C(F)(F)C(F)(F)C(F)(F)C(F)(F)Br [PFDB, perfluorodecylbromide]

Solubility in MCT [2]: cannot be dissolved in MCT
SMILES: FC(F)(F)C(F)(F)C(F)(F)C(F)(F)C(F)(F)C(F)(F)C(F)(F)C(F)(F)Br [PFOB, Perfluoroctylbromide, reference compound]
